From publication PMC10746543, “Design principles for cyclin K molecular glue degraders” (Nature Chemical Biology, 2023) come the findings set out here.

Several values for one entry are separate records, joined by “and”; a condition that tells them apart may be missing. Equal values may be shown once. Read-outs that look alike come from different tables or passages of the source.

One assay addresses T1, CDK12–cyclin K and DDB1 (Homo sapiens, UniProt Q16531+Q9NYV4, K965R).
T1 construct: His6–CDK12 (a.a. 713–1,052); full-length or beta-propeller B domain deletion (ΔBPB: a.a. 396–705 deleted) constructs of His6–DDB1ΔBPB, StrepII–Avi–DDB1, or His6–Spy–DDB1; made in house; host or cells: Trichoplusia ni High Five insect cells (baculovirus)
The experiment in a line: TR-FRET ternary complex formation assay (compound titration). The class given is binding. The following applies: for TR-FRET signal at compound concentration: replicate titrations. In short, it runs like this: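 Signal was the ratio of 520 nm to 490 nm fluorescence, measured after a 70 μs delay that reduced background.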

The subject of assay [1] is cyclin K–eGFP degradation reporter. Put plainly: Cyclin K reporter stability analysis (dual-color cyclin K–eGFP reporter). The class given is cell-based, human. In short, it runs like this: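 Values reflect cyclin K–eGFP levels after a 5 h exposure, expressed as the green-to-red fluorescence ratio and scaled to three vehicle-treated controls. Measurements came from HEK293T–Cas9 reporter cells by flow cytometry.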

A further assay relates to HEK293T cells. Put plainly: Drug sensitivity assay (CellTiter-Glo viability) with or without MLN4924 pretreatment. The class given is cell-based, human. The conditions noted are these: for EC50: Homo sapiens, HEK-293T; for Toxicity rescue: MLN4924-mediated cytotoxicity rescue, 10 µM used where n.d. In short, it runs like this: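 HEK293T–Cas9, 0.15 × 10^6 ml^−1; pretreat DMSO vs 100 nM MLN4924; drugs dispensed after 2 h; 3 d exposure; CellTiter-Glo; viability vs DMSO control.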

[2] abbreviates: in vitro complex formation, 50 nM CDK12–cyclin K, 100 nM DDB1, text and figures, read-out: TR-FRET EC50.
Setting [3] is: sheet MOESM7, read-out: log TR-FRET EC50 (converted).
[4] abbreviates: source data sheet correlations, read-out: TR-FRET EC50.
Where [5] appears, read: source data sheet correlations, read-out: DC50.
Setting [6] is: Supplementary Table 2, HEK293T viability, 72 h, compound alone, read-out: Cellular assays EC50.

T1 sequence (Q9NYV4 713-1052 K965R): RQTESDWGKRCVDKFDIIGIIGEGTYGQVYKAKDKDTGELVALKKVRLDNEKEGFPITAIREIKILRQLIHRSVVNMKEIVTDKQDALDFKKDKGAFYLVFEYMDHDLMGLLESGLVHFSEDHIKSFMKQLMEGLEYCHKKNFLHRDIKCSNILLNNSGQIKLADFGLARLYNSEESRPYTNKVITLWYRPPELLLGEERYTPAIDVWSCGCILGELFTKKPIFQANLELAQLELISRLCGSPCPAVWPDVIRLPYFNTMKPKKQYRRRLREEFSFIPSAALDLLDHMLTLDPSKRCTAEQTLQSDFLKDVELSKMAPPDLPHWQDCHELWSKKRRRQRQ
T1 sequence (O75909 1-267 partner): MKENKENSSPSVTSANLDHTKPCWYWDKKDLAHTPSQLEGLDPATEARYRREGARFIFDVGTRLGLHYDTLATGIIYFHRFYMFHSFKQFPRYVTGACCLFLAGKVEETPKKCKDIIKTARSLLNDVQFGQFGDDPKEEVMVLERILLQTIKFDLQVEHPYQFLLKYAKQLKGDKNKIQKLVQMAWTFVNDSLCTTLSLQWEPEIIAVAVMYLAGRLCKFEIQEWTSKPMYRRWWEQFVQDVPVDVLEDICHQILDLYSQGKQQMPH
T1 sequence (Q16531 whole entry): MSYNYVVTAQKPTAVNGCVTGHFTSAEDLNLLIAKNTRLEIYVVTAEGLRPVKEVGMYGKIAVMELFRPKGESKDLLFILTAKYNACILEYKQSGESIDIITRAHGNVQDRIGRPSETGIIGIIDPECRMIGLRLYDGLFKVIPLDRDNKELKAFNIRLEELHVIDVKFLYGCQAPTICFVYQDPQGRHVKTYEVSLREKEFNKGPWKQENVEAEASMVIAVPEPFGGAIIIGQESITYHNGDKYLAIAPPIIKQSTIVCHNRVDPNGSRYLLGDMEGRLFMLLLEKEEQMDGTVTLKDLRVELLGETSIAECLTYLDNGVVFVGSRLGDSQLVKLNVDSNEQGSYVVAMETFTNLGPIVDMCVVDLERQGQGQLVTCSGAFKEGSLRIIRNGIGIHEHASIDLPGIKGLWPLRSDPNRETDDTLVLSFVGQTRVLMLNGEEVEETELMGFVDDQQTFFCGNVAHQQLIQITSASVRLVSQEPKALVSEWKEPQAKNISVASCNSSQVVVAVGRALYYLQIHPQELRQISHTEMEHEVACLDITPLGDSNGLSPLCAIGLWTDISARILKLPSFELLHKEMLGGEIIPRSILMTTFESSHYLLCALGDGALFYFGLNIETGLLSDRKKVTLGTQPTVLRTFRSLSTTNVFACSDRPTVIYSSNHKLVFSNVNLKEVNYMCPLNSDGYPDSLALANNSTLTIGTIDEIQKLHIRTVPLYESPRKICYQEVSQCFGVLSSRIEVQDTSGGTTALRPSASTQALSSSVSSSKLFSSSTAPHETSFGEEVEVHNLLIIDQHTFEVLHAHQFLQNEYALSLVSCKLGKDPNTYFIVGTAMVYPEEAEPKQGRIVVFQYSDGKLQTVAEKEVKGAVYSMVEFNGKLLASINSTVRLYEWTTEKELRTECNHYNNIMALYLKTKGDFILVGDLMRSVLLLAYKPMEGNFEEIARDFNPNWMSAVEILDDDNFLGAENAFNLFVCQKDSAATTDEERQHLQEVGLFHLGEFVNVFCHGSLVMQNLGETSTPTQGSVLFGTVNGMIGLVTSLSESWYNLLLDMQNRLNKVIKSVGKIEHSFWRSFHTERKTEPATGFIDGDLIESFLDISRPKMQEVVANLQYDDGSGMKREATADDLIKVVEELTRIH

Take `CC(C)n1cnc2c(NCc3ccc(-c4ccccn4)cc3)nc(N[C@@H](Cc3ccc(OCc4ccccc4)cc3)c3nnc[nH]3)nc21` [DS58]: at CDK12–cyclin K and DDB1 (raw titration data), the “TR-FRET signal at compound concentration 4.68 nM” value was 0.2093 and 0.2396; the “TR-FRET signal at compound concentration 21.6 nM” value is 0.2345 and 0.3021; the “TR-FRET signal at compound concentration 36 nM” value is 0.286 and 0.3105; the “TR-FRET signal at compound concentration 79.2001 nM” value was 0.3776 and 0.414. Further, at CDK12–cyclin K and DDB1 (raw titration data), the “TR-FRET signal at compound concentration 158.4 nM” value is 0.5529 and 0.574; the “TR-FRET signal at compound concentration 309.6 nM” value is 0.8665 and 0.8767; the “TR-FRET signal at compound concentration 626.401 nM” value was 1.353 and 1.369; the “TR-FRET signal at compound concentration 1252.8 nM” value is 2.037 and 2.014. At CDK12–cyclin K and DDB1 (raw titration data), the “TR-FRET signal at compound concentration 2448 nM” value is 2.68 and 2.699; the “TR-FRET signal at compound concentration 9936.01 nM” value was 3.329 and 3.445; the “TR-FRET signal at compound concentration 20016 nM” value is 3.076 and 3.1. The EC50 on CDK12–cyclin K and DDB1 (setting [2]) was 948 ± 61 nM. In addition, the EC50 on CDK12–cyclin K and DDB1 (setting [3]) was 948 nM. The EC50 on CDK12–cyclin K and DDB1 (setting [4]) was 948 nM. In addition, the DC50 in assay [1] (setting [5]) amounted to 2020 nM. The EC50 in the assay on HEK293T cells (Supplementary Fig. 5, HEK293T, CellTiter Glo, 72h, read-out: Viability EC50, no MLN4924) was 1750 nM. For the same compound, the EC50 with HEK293T cells (setting [6]) is 1780 nM. Moreover, the Toxicity rescue in the assay with HEK293T cells (Supplementary Table 2) was determined as 461%.

In the case of `CN1CC[C@H](c2c(O)cc(O)c3c(=O)cc(-c4ccccc4Cl)oc23)[C@H](O)C1` [Flavopiridol, reference compound], on CDK12–cyclin K and DDB1 (raw replicate titration data), the “TR-FRET signal at compound concentration 4.68 nM” value is 0.2594 and 0.2805 and 0.1719 and 0.175; the “TR-FRET signal at compound concentration 21.6 nM” value was 0.4135 and 0.429 and 0.2939 and 0.3262; the “TR-FRET signal at compound concentration 36 nM” value is 0.6079 and 0.623 and 0.4905 and 0.5031; the “TR-FRET signal at compound concentration 79.2001 nM” value was 0.8256 and 0.8685 and 0.6858 and 0.596. In addition, at CDK12–cyclin K and DDB1 (raw replicate titration data), the “TR-FRET signal at compound concentration 158.4 nM” value is 0.9273 and 1.013 and 0.793 and 0.779; the “TR-FRET signal at compound concentration 309.6 nM” value is 0.9662 and 1.065 and 0.8707 and 0.8846; the “TR-FRET signal at compound concentration 626.401 nM” value was 1.035 and 1.155 and 0.9082 and 0.902; the “TR-FRET signal at compound concentration 1252.8 nM” value was 1.099 and 1.27 and 0.978 and 0.9866. For the same compound, at CDK12–cyclin K and DDB1 (raw replicate titration data), the “TR-FRET signal at compound concentration 2448 nM” value is 1.138 and 1.2612 and 0.9975 and 0.9532; the “TR-FRET signal at compound concentration 9936.01 nM” value is 1.131 and 1.306 and 0.9937 and 0.9375; the “TR-FRET signal at compound concentration 20016 nM” value is 1.0554 and 1.222 and 0.9378 and 0.9067. For the same compound, the half-maximal degradation concentration (DC50) in assay [1] (Supplementary Table 2, HEK293T cycK-eGFP reporter, 5 h, read-out: Cellular assays DC50) was more than 10000 nM. Besides, the EC50 with HEK293T cells (setting [6]) turned out to be 395 nM. Moreover, the Toxicity rescue with HEK293T cells (Supplementary Table 2) worked out at 1%.

As to `CCc1cccc(CCCNc2nc(N[C@H](CC)CO)nc3c2ncn3C(C)C)c1` [DS67], the “TR-FRET signal at compound concentration” value was 0.3354 and 0.3368 at CDK12–cyclin K and DDB1 (compound concentration 0.468 nM); 0.4163 and 0.4021 at CDK12–cyclin K and DDB1 (compound concentration 2.16 nM); 0.5886 and 0.5847 at CDK12–cyclin K and DDB1 (compound concentration 3.6 nM); 0.9073 and 0.903 at CDK12–cyclin K and DDB1 (compound concentration 7.92001 nM); 1.493 and 1.552 at CDK12–cyclin K and DDB1 (compound concentration 15.84 nM); 2.297 and 2.228 at CDK12–cyclin K and DDB1 (compound concentration 30.96 nM). For the same compound, the “TR-FRET signal at compound concentration” value at CDK12–cyclin K and DDB1 (compound concentration 62.6401 nM) was 3.049 and 3.013; at CDK12–cyclin K and DDB1 (compound concentration 125.28 nM) it was 3.561 and 3.406; at CDK12–cyclin K and DDB1 (compound concentration 244.8 nM), 3.933 and 3.877; at CDK12–cyclin K and DDB1 (compound concentration 993.601 nM), 4.034 and 4.0558; on CDK12–cyclin K and DDB1 (compound concentration 2001.6 nM), 4.271 and 4.04. In addition, the EC50 at CDK12–cyclin K and DDB1 (setting [2]) is 31 ± 1 nM; at CDK12–cyclin K and DDB1 (setting [3]), 30.5 nM; at CDK12–cyclin K and DDB1 (setting [4]), 30.5 nM; in the assay on HEK293T cells (setting [6]), 517 nM. In addition, in assay [1] (setting [5]), the 50% degradation concentration (DC50) stood at 219 nM. Besides, the Toxicity rescue in the assay with HEK293T cells (Supplementary Table 2) was 819%.
